PMC8242589, “Cardiac Safety of Kinase Inhibitors – Improving Understanding and Prediction of Liabilities in Drug Discovery Using Human Stem Cell-Derived Models” (Frontiers in Cardiovascular Medicine, 2021)
Entries after “also recorded” stand apart in the source; their conditions may differ.

Key:
[1] = tested on: hSC-CMs (Cor.4U Cardiomyocytes); assay: CardioExcyte 96 impedance and EFP recording (beating rate, base impedance); format: cell-based, human; conditions: for activity at 0.03 µM / activity at 0.1 µM / activity at 0.3 µM / activity at 1 µM: Homo sapiens, Cardiomyocyte; for activity at 0.03 µM / activity at 0.1 µM / activity at 0.3 µM / activity at 1 µM / BR / Base Imp: vs baseline before drug (taken as 100%)
Procedure, shortened: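 hSC-CM monolayers (Cor.4U), cultured 4 days at 37 °C, 5% CO2, recorded spontaneously beating; impedance sampled at 1 kHz, EFP at 10 kHz. Beating rate taken as reciprocal of inter-spike interval in EFP. Each test concentration expressed as fractional change versus pre-drug baseline (100%).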

[2] = tested on: hSC-CMs (Cor.4U Cardiomyocytes); assay: Apoptosis assay (CellEvent Caspase-3/7 Green, IncuCyte ZOOM kinetics over 24 h); format: cell-based, human; design: key to Caspase / Caspase MEAN: % of time-matched vehicle control (green object area); conditions: for activity at 0.03 µM / activity at 0.1 µM / activity at 0.3 µM / activity at 1 µM: Homo sapiens, Cardiomyocyte; for activity at 0.03 µM / activity at 0.1 µM / activity at 0.3 µM / activity at 1 µM / Caspase: normalized to time-matched vehicle control; for Apoptosis (caspase-3/7 activation), result in words: monitored over 24 h
Procedure, shortened: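 Cor.4U cardiomyocytes were cultured 4 days at 5% CO2 and 37 °C, given a 2 h baseline, then treated with compound for 24 h. Caspase-3/7 green nuclear signal was imaged every 2 h, and total green object area per well (μm^2/well) was normalized to the time-matched vehicle control. At least three replicates were run per concentration.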

[3] = tested on: hSC-CMs (Cor.4U Cardiomyocytes); assay: ATP assay (CellTiter-Glo Luminescent Cell Viability Assay); format: cell-based, human; conditions: for viability at 0.03 µM / viability at 0.1 µM / viability at 0.3 µM / viability at 1 µM: Homo sapiens, Cardiomyocyte; for viability at 0.03 µM / viability at 0.1 µM / viability at 0.3 µM / viability at 1 µM / ATP: normalized to time-matched DMSO control; for Effect on ATP level, in words: hSC-CMs, up to the highest test concentrations
Procedure, shortened: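 Human stem-cell-derived Cor.4U cardiomyocytes (25,000–30,000/well), cultured 4 days at 37 °C, switched to serum-free BMCC medium 12 h before dosing. Cellular ATP quantified by CellTiter-Glo luminescence and normalized to time-matched DMSO controls; at least three replicates per concentration.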

GSK-3α = conditions: ref [46] (CHIR99021), [47] (SB 216763); read-out: Target IC50 GSK-3α; cited from earlier work
ROCK1 = conditions: ref [36] (RKI-1447), [37], [38] (Fasudil), [39]–[43] (Y-27632), [44], [45] (GSK-429286); read-out: Target IC50 ROCK1; cited from earlier work
ROCK2 = conditions: ref [36] (RKI-1447), [37], [38] (Fasudil), [39]–[43] (Y-27632), [44], [45] (GSK-429286); read-out: Target IC50 ROCK2; cited from earlier work
[4] = 0.1 µM, 24h, read-out: Base Imp

SMILES: Cc1c[nH]c(-c2cnc(NCCNc3ccc(C#N)cn3)nc2-c2ccc(Cl)cc2Cl)n1 [CHIR99021]
- activity at 0.03 µM ([1]; 2h, read-out: BR): 99%
- activity at 0.03 µM ([1]; 2h, read-out: Base Imp): 96%
- activity at 0.03 µM ([1]; 24h, read-out: BR): 95%
- activity at 0.03 µM ([1]; 24h, read-out: Base Imp): 97%
- activity at 0.1 µM ([1]; 0.1 µM, 2h, read-out: BR): 93%
- activity at 0.1 µM ([1]; 0.1 µM, 2h, read-out: Base Imp): 93%
- activity at 0.1 µM ([1]; 0.1 µM, 24h, read-out: BR): 92%
- activity at 0.1 µM [1, 4]: 97%
- activity at 0.3 µM ([1]; 2h, read-out: BR): 90%
- activity at 0.3 µM ([1]; 2h, read-out: Base Imp): 94%
- activity at 0.3 µM ([1]; 24h, read-out: BR): 92%
- activity at 0.3 µM ([1]; 24h, read-out: Base Imp): 91%
- activity at 1 µM ([1]; 1 µM, 2h, read-out: BR): 84%
- activity at 1 µM ([1]; 1 µM, 2h, read-out: Base Imp): 90%
- activity at 1 µM ([1]; 1 µM, 24h, read-out: BR): 93%
- activity at 1 µM ([1]; 1 µM, 24h, read-out: Base Imp): 88%
- Effect on cardiomyocyte function in 3D surface plots (beating rate, base impedance, ATP), in words ([1]; hSC-CMs, 2 and 24 h): minimal functional effect
- Effect on hSC-CMs function (base impedance and beating rate), in words ([1]; hSC-CMs, 2 and 24 h): did not produce functionally relevant changes
- activity at 0.03 µM ([2]; 2h): 160%
- activity at 0.03 µM ([2]; 24h): 109%
- activity at 0.1 µM ([2]; 0.1 µM, 2h): 143%
- activity at 0.1 µM ([2]; 0.1 µM, 24h): 79%
- activity at 0.3 µM ([2]; 2h): 132%
- activity at 0.3 µM ([2]; 24h): 80%
- activity at 1 µM ([2]; 1 µM, 2h): 122%
- activity at 1 µM ([2]; 1 µM, 24h): 85%
- Apoptosis (caspase-3/7 activation), result in words ([2]; hSC-CMs): did not have any functionally-relevant effect
- viability at 0.03 µM ([3]; 2h): 87%
- viability at 0.03 µM ([3]; 24h): 97%
- viability at 0.1 µM ([3]; 0.1 µM, 2h): 87%
- viability at 0.1 µM ([3]; 0.1 µM, 24h): 95%
- viability at 0.3 µM ([3]; 2h): 93%
- viability at 0.3 µM ([3]; 24h): 92%
- viability at 1 µM ([3]; 1 µM, 2h): 99%
- viability at 1 µM ([3]; 1 µM, 24h): 97%
- Effect on ATP level, in words [3]: did not impact the ATP level
- IC50 (GSK-3α): 10 nM

SMILES: CC1=C(C(=O)Nc2cc3cn[nH]c3cc2F)C(c2ccc(C(F)(F)F)cc2)CC(=O)N1 (stereo not drawn) [GSK-429286]
- BR ([1]; 0.01 µM, 2h): 102
- Base Imp ([1]; 0.01 µM, 2h): 99
- BR ([1]; 0.01 µM, 24h): 100
- Base Imp ([1]; 0.01 µM, 24h): 92
- BR ([1]; 0.1 µM, 2h): 102
- Base Imp ([1]; 0.1 µM, 2h): 91
- BR ([1]; 0.1 µM, 24h): 106
- Base Imp ([1]; 0.1 µM, 24h): 85
- BR ([1]; 1 µM, 2h): 105
- Base Imp ([1]; 1 µM, 2h): 83
- BR ([1]; 1 µM, 24h): 109
- Base Imp ([1]; 1 µM, 24h): 72
- BR ([1]; 10 µM, 2h): 98
- Base Imp ([1]; 10 µM, 2h): 69
- BR ([1]; 10 µM, 24h): 88
- Base Imp ([1]; 10 µM, 24h): 58
- Effect on base impedance, in words ([1]; hSC-CMs, 2 and 24 h): concentration-and time-dependent decrease in base impedance; also recorded: concentration-dependent effects
- Caspase ([2]; 0.01 µM, 2h): 95
- Caspase ([2]; 0.01 µM, 24h): 97
- Caspase ([2]; 0.1 µM, 2h): 109
- Caspase ([2]; 0.1 µM, 24h): 103
- Caspase ([2]; 1 µM, 2h): 104
- Caspase ([2]; 1 µM, 24h): 105
- Caspase ([2]; 10 µM, 2h): 116
- Caspase ([2]; 10 µM, 24h): 127
- Apoptosis (caspase-3/7 activity) at the highest test concentration, in words ([2]; top / highest test concentration, over 24 h): marginal effects
- ATP ([3]; 0.01 µM, 2h): 101
- ATP ([3]; 0.01 µM, 24h): 101
- ATP ([3]; 0.1 µM, 2h): 101
- ATP ([3]; 0.1 µM, 24h): 96
- ATP ([3]; 1 µM, 2h): 102
- ATP ([3]; 1 µM, 24h): 96
- ATP ([3]; 10 µM, 2h): 104
- ATP ([3]; 10 µM, 24h): 102
- IC50 (ROCK1): 14 nM
- IC50 (ROCK2): 63 nM

SMILES: Cn1cc(C2=C(c3ccc(Cl)cc3Cl)C(=O)NC2=O)c2ccccc21 [SB 216763]
- activity at 0.03 µM ([1]; 2h, read-out: BR): 98%
- activity at 0.03 µM ([1]; 2h, read-out: Base Imp): 109%
- activity at 0.03 µM ([1]; 24h, read-out: BR): 91%
- activity at 0.03 µM ([1]; 24h, read-out: Base Imp): 108%
- activity at 0.1 µM ([1]; 0.1 µM, 2h, read-out: BR): 88%
- activity at 0.1 µM ([1]; 0.1 µM, 2h, read-out: Base Imp): 107%
- activity at 0.1 µM ([1]; 0.1 µM, 24h, read-out: BR): 94%
- activity at 0.1 µM [1, 4]: 107%
- activity at 0.3 µM ([1]; 2h, read-out: BR): 97%
- activity at 0.3 µM ([1]; 2h, read-out: Base Imp): 106%
- activity at 0.3 µM ([1]; 24h, read-out: BR): 94%
- activity at 0.3 µM ([1]; 24h, read-out: Base Imp): 102%
- activity at 1 µM ([1]; 1 µM, 2h, read-out: BR): 85%
- activity at 1 µM ([1]; 1 µM, 2h, read-out: Base Imp): 102%
- activity at 1 µM ([1]; 1 µM, 24h, read-out: BR): 93%
- activity at 1 µM ([1]; 1 µM, 24h, read-out: Base Imp): 105%
- Effect on cardiomyocyte function in 3D surface plots (beating rate, base impedance, ATP), in words ([1]; hSC-CMs, 2 and 24 h): minimal functional effect
- Effect on hSC-CMs function (base impedance and beating rate), in words ([1]; hSC-CMs, 2 and 24 h): did not produce functionally relevant changes
- activity at 0.03 µM ([2]; 2h): 143%
- activity at 0.03 µM ([2]; 24h): 92%
- activity at 0.1 µM ([2]; 0.1 µM, 2h): 174%
- activity at 0.1 µM ([2]; 0.1 µM, 24h): 132%
- activity at 0.3 µM ([2]; 2h): 256%
- activity at 0.3 µM ([2]; 24h): 265%
- activity at 1 µM ([2]; 1 µM, 2h): 326%
- activity at 1 µM ([2]; 1 µM, 24h): 352%
- Time to plateau of caspase-3/7 activation ([2]; hSC-CMs): within the first hour
- Apoptosis (caspase-3/7 activation), result in words ([2]; hSC-CMs): quickly induced a concentration-dependent caspase−3/7 activation
- viability at 0.03 µM ([3]; 2h): 88%
- viability at 0.03 µM ([3]; 24h): 98%
- viability at 0.1 µM ([3]; 0.1 µM, 2h): 88%
- viability at 0.1 µM ([3]; 0.1 µM, 24h): 99%
- viability at 0.3 µM ([3]; 2h): 91%
- viability at 0.3 µM ([3]; 24h): 95%
- viability at 1 µM ([3]; 1 µM, 2h): 97%
- viability at 1 µM ([3]; 1 µM, 24h): 96%
- Effect on ATP level, in words [3]: did not impact the ATP level
- IC50 (GSK-3α): 34 nM
